# Test results from paper PMC8617031, “Development of a BCL-xL and BCL-2 dual degrader with improved anti-leukemic activity,” (Nature Communications, 2021).
# Where “and” joins values, the source holds several entries; their conditions need not be identical. Equal values may be shown once. Read-outs that look alike come from different tables or passages of the source.
# Columns and labels:
# [1] = system: BCL-xL/PROTAC/VCB ternary complex (HiBit-BCL-xL, HaloTag-VHL); experiment: NanoBRET intracellular ternary complex formation in 293T cells, BCL-xL; type: cell-based, human; details: for nanoBRET ratio (610/450, background-subtracted), Ave, Bcl-xl: Ave of Read2 and Read3; for nanoBRET ratio (610/450, background-subtracted), Ave, Bcl-xl / nanoBRET ratio (610/450, background-subtracted), Read2, Bcl-xl / nanoBRET ratio (610/450, background-subtracted), Read3, Bcl-xl: triplicate wells; for intracellular ternary complex formation with BCL-xL (in words): NanoBRET, 293T cells, 6 h
# Outline: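 293T cells were transfected with HiBit-BCL-xL or HiBit-BCL-2 plus HaloTag-VHL and incubated overnight with or without HaloTag NanoBRET 618 ligand in 4% FBS Opti-MEM. Serially diluted compounds were applied for 6 h at 37 °C. mBRET ratio from donor emission (450/50 nm) and acceptor emission (610 nm longpass) after Nano-Glo substrate.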
# BCL-xL = molecular target: T1, BCL-xL (Homo sapiens, UniProt Q07817); experiment: BCL-xL degradation by immunoblot in 293T cells; type: cell-based; details: for normalized BCL-xL protein content at 1 µM / Dmax: HEK-293T; for normalized BCL-xL protein content at 1 µM: 293T, 1 μM 753b, Fig. 3d
# T1 construct: endogenous in cells
# T1 sequence (Q07817 whole entry): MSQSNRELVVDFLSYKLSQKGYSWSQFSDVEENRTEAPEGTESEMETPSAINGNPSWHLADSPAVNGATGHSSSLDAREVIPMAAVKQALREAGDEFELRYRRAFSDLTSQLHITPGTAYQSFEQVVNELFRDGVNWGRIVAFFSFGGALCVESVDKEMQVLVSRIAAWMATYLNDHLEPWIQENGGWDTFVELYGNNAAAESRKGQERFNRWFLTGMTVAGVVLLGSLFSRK
# Outline: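 Immunoblot of 293T cell lysates (RIPA, 20–40 μg protein per lane) with β-actin as loading control and chemiluminescent detection. Bands quantified by densitometry and normalized; DC50 and Dmax derived from the quantified blots, n = 3 biologically independent experiments.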
# [2] = 293T cells, four concentrations, 16 h, Fig. 2b, read-out: BCL-xL DC50
smiles,measurement,setting,value
Cc1ncsc1-c1ccc([C@H](C)NC(=O)[C@@H]2C[C@@H](O)CN2C(=O)[C@@H](NC(=O)CCCCCCC(=O)N2CCN(C[C@@]3(C)CCC(c4ccc(Cl)cc4)=C(CN4CCN(c5ccc(C(=O)NS(=O)(=O)c6ccc(N[C@H](CCN7CCOCC7)CSc7ccccc7)c(S(=O)(=O)C(F)(F)F)c6)cc5)CC4)C3)CC2)C(C)(C)C)cc1 [753a],"nanoBRET ratio (610/450, background-subtracted), Ave, Bcl-xl",[1]; 0.004 uM,6.588 and 5.267 and 6.114
same,"nanoBRET ratio (610/450, background-subtracted), Read2, Bcl-xl",[1]; 0.004 uM,6.808 and 5.756 and 5.973
same,"nanoBRET ratio (610/450, background-subtracted), Read3, Bcl-xl",[1]; 0.004 uM,6.368 and 4.777 and 6.254
same,"nanoBRET ratio (610/450, background-subtracted), Ave, Bcl-xl",[1]; 0.012 uM,7.772 and 5.901 and 5.719
same,"nanoBRET ratio (610/450, background-subtracted), Read2, Bcl-xl",[1]; 0.012 uM,8.034 and 6.13 and 5.719
same,"nanoBRET ratio (610/450, background-subtracted), Read3, Bcl-xl",[1]; 0.012 uM,7.511 and 5.673 and 5.719
same,"nanoBRET ratio (610/450, background-subtracted), Ave, Bcl-xl",[1]; 0.111 uM,7.6 and 7.528 and 6.707
same,"nanoBRET ratio (610/450, background-subtracted), Read2, Bcl-xl",[1]; 0.111 uM,8.597 and 7.785 and 7.564
same,"nanoBRET ratio (610/450, background-subtracted), Read3, Bcl-xl",[1]; 0.111 uM,6.603 and 7.27 and 5.849
same,"nanoBRET ratio (610/450, background-subtracted), Ave, Bcl-xl",[1]; 0.333 uM,7.771 and 7.613 and 7.591
same,"nanoBRET ratio (610/450, background-subtracted), Read2, Bcl-xl",[1]; 0.333 uM,8.649 and 8.045 and 7.293
same,"nanoBRET ratio (610/450, background-subtracted), Read3, Bcl-xl",[1]; 0.333 uM,6.893 and 7.18 and 7.888
same,"nanoBRET ratio (610/450, background-subtracted), Ave, Bcl-xl",[1]; 1 uM,6.777 and 6.861 and 6.637
same,"nanoBRET ratio (610/450, background-subtracted), Read2, Bcl-xl",[1]; 1 uM,6.613 and 6.856 and 7.09
same,"nanoBRET ratio (610/450, background-subtracted), Read3, Bcl-xl",[1]; 1 uM,6.94 and 6.866 and 6.184
same,"nanoBRET ratio (610/450, background-subtracted), Ave, Bcl-xl",[1]; 3 uM,7.07 and 7.184 and 6.888
same,"nanoBRET ratio (610/450, background-subtracted), Read2, Bcl-xl",[1]; 3 uM,7.24 and 8.026 and 7.182
same,"nanoBRET ratio (610/450, background-subtracted), Read3, Bcl-xl",[1]; 3 uM,6.9 and 6.341 and 6.5933
same,BCL-xL degradation (in words),"BCL-xL; 293T cells, 16 h",could only partially degrade BCL-xL
Cc1ncsc1-c1ccc([C@H](C)NC(=O)[C@@H]2C[C@@H](O)CN2C(=O)[C@@H](NC(=O)CCCCCCC(=O)N2CCN(C[C@]3(C)CCC(c4ccc(Cl)cc4)=C(CN4CCN(c5ccc(C(=O)NS(=O)(=O)c6ccc(N[C@H](CCN7CCOCC7)CSc7ccccc7)c(S(=O)(=O)C(F)(F)F)c6)cc5)CC4)C3)CC2)C(C)(C)C)cc1 [753b],"nanoBRET ratio (610/450, background-subtracted), Ave, Bcl-xl",[1]; 0.004 uM,6.669 and 7.034 and 7.222
same,"nanoBRET ratio (610/450, background-subtracted), Read2, Bcl-xl",[1]; 0.004 uM,6.7548 and 7.529 and 7.533
same,"nanoBRET ratio (610/450, background-subtracted), Read3, Bcl-xl",[1]; 0.004 uM,6.584 and 6.539 and 6.911
same,"nanoBRET ratio (610/450, background-subtracted), Ave, Bcl-xl",[1]; 0.012 uM,7.369 and 7.678 and 8.359
same,"nanoBRET ratio (610/450, background-subtracted), Read2, Bcl-xl",[1]; 0.012 uM,7.541 and 7.384 and 8.298
same,"nanoBRET ratio (610/450, background-subtracted), Read3, Bcl-xl",[1]; 0.012 uM,7.198 and 7.973 and 8.421
same,"nanoBRET ratio (610/450, background-subtracted), Ave, Bcl-xl",[1]; 0.111 uM,9.509 and 8.705 and 10.1696
same,"nanoBRET ratio (610/450, background-subtracted), Read2, Bcl-xl",[1]; 0.111 uM,10.2238 and 9.035 and 9.873
same,"nanoBRET ratio (610/450, background-subtracted), Read3, Bcl-xl",[1]; 0.111 uM,8.794 and 8.375 and 10.4663
same,"nanoBRET ratio (610/450, background-subtracted), Ave, Bcl-xl",[1]; 0.333 uM,10.2723 and 9.168 and 8.741
same,"nanoBRET ratio (610/450, background-subtracted), Read2, Bcl-xl",[1]; 0.333 uM,10.5785 and 8.953 and 8.643
same,"nanoBRET ratio (610/450, background-subtracted), Read3, Bcl-xl",[1]; 0.333 uM,9.9661 and 9.383 and 8.84
same,"nanoBRET ratio (610/450, background-subtracted), Ave, Bcl-xl",[1]; 1 uM,8.944 and 10.7233 and 9.842
same,"nanoBRET ratio (610/450, background-subtracted), Read2, Bcl-xl",[1]; 1 uM,9.3741 and 12.2305 and 10.3071
same,"nanoBRET ratio (610/450, background-subtracted), Read3, Bcl-xl",[1]; 1 uM,8.514 and 9.216 and 9.3776
same,"nanoBRET ratio (610/450, background-subtracted), Ave, Bcl-xl",[1]; 3 uM,8.924 and 8.687 and 9.846
same,"nanoBRET ratio (610/450, background-subtracted), Read2, Bcl-xl",[1]; 3 uM,9.65 and 9.358 and 10.5304
same,"nanoBRET ratio (610/450, background-subtracted), Read3, Bcl-xl",[1]; 3 uM,8.197 and 8.015 and 9.162
same,intracellular ternary complex formation with BCL-xL (in words),[1],much higher activity to induce the ternary complex formation with both BCL-xL and BCL-2 relative to 753a
same,DC50,"BCL-xL; 293T cells, 16 h, Fig. 3c, read-out: DC50 in degrading BCL-xL",6 nM
same,normalized BCL-xL protein content at 1 µM,"BCL-xL; time point 1 (unit inferred), time 0 = 100, 3 replicates",77%
same,normalized BCL-xL protein content at 1 µM,BCL-xL; time point 3,55%
same,normalized BCL-xL protein content at 1 µM,BCL-xL; time point 6,21%
same,normalized BCL-xL protein content at 1 µM,BCL-xL; time point 12,13%
same,normalized BCL-xL protein content at 1 µM,BCL-xL; time point 16,12%
same,normalized BCL-xL protein content at 1 µM,BCL-xL; time point 24,8%
Cc1ncsc1-c1ccc([C@H](C)NC(=O)[C@@H]2C[C@@H](O)CN2C(=O)[C@@H](NC(=O)CCCCCC(=O)N2CCN(CC[C@H](CSc3ccccc3)Nc3ccc(S(=O)(=O)NC(=O)c4ccc(N5CCN(CC6=C(c7ccc(Cl)cc7)CCC(C)(C)C6)CC5)cc4)cc3S(=O)(=O)C(F)(F)F)CC2)C(C)(C)C)cc1 [DT2216],DC50,BCL-xL; [2],20.3 nM
same,Dmax,BCL-xL,92%
Cc1ncsc1-c1ccc([C@H](C)NC(=O)[C@@H]2C[C@@H](O)CN2C(=O)[C@@H](NC(=O)CCCCC(=O)N2CCN(CC3(C)CCC(c4ccc(Cl)cc4)=C(CN4CCN(c5ccc(C(=O)NS(=O)(=O)c6ccc(N[C@H](CCN7CCOCC7)CSc7ccccc7)c(S(=O)(=O)C(F)(F)F)c6)cc5)CC4)C3)CC2)C(C)(C)C)cc1 (some centres unmarked) [PPC6],intracellular ternary complex formation with BCL-xL (in words),[1],stronger BCL-xL/PROTAC/VHL-EloC-EloB (VCB) ternary complexes
same,DC50,BCL-xL; [2],39.9 nM
same,Dmax,BCL-xL,91%
Cc1ncsc1-c1ccc([C@H](C)NC(=O)[C@@H]2C[C@@H](O)CN2C(=O)[C@@H](NC(=O)CCCCCC(=O)N2CCN(CC3(C)CCC(c4ccc(Cl)cc4)=C(CN4CCN(c5ccc(C(=O)NS(=O)(=O)c6ccc(N[C@H](CCN7CCOCC7)CSc7ccccc7)c(S(=O)(=O)C(F)(F)F)c6)cc5)CC4)C3)CC2)C(C)(C)C)cc1 (some centres unmarked) [PPC7],intracellular ternary complex formation with BCL-xL (in words),[1],stronger BCL-xL/PROTAC/VHL-EloC-EloB (VCB) ternary complexes
same,DC50,BCL-xL; [2],12.8 nM
same,Dmax,BCL-xL,85%
Cc1ncsc1-c1ccc([C@H](C)NC(=O)[C@@H]2C[C@@H](O)CN2C(=O)[C@@H](NC(=O)CCCCCCC(=O)N2CCN(CC3(C)CCC(c4ccc(Cl)cc4)=C(CN4CCN(c5ccc(C(=O)NS(=O)(=O)c6ccc(N[C@H](CCN7CCOCC7)CSc7ccccc7)c(S(=O)(=O)C(F)(F)F)c6)cc5)CC4)C3)CC2)C(C)(C)C)cc1 (some centres unmarked) [PPC8],intracellular ternary complex formation with BCL-xL (in words),[1],stronger BCL-xL/PROTAC/VHL-EloC-EloB (VCB) ternary complexes
same,DC50,BCL-xL; [2],12.9 nM
same,Dmax,BCL-xL,94%
Cc1ncsc1-c1ccc([C@H](C)NC(=O)[C@@H]2C[C@@H](O)CN2C(=O)[C@@H](NC(=O)CCCCCCCC(=O)N2CCN(CC3(C)CCC(c4ccc(Cl)cc4)=C(CN4CCN(c5ccc(C(=O)NS(=O)(=O)c6ccc(N[C@H](CCN7CCOCC7)CSc7ccccc7)c(S(=O)(=O)C(F)(F)F)c6)cc5)CC4)C3)CC2)C(C)(C)C)cc1 (some centres unmarked) [PPC9],intracellular ternary complex formation with BCL-xL (in words),[1],stronger BCL-xL/PROTAC/VHL-EloC-EloB (VCB) ternary complexes
same,DC50,BCL-xL; [2],12.8 nM
same,Dmax,BCL-xL,96%
